Assays:
[1] = [M+H]+; instrument: TW
[2] = instrument: DT, stepped-field
[3] = instrument: DT, single field, calibrated with Agilent tune mix (Agilent)

Row | SMILES | collision cross section (N2) [1] | also measured
1 | CC(C)(C)[C@H](O)[C@H](Cc1ccc(Cl)cc1)n1cncn1 (racemic) [Paclobutrazol] | 168.73 Å² | –
2 | O=C\1\C=C/[C@]3(/C(=C/1)CC[C@H]4[C@@H]2CCC(=O)[C@]2(CC[C@H]34)C)C [1,4-androstadiene-3,17-dione] | 166.5 Å² | –
3 | C[C@]12Cc3cn[nH]c3C[C@@H]1CC[C@@H]1[C@@H]2CC[C@@]2(C)[C@H]1C[C@H](O)[C@]2(C)O [16B-hydroxystanozolol] | 192.1 Å² | –
4 | C[C@]12CCC(=O)C=C1CC[C@@H]1[C@@H]2CC[C@@]2(C)[C@H]1CC[C@]2(C)O [17a-Methyltestosterone] | 173.7 Å² | –
5 | C/C(=N\C#N)N(C)Cc1ccc(Cl)nc1 [Acetamiprid] | 150.24 Å² | –
6 | CC(=O)c1ccc2c(c1)N(CCCN(C)C)c1ccccc1S2 [Acetopromazine] | 160.5 Å² | –
7 | C[C@H]1C[C@H]2[C@@H]3CCC4=CC(=O)C=C[C@]4(C)[C@@]3(Cl)[C@@H](O)C[C@]2(C)[C@@]1(O)C(=O)CO [Beclomethasone] | 189.2 Å² | –
8 | CC(C)N1C(=O)N(c2ccccc2)CS/C1=N\C(C)(C)C [Buprofezin] | 173.58 Å² | –
9 | CC1=C(C(=O)Nc2ccccc2)SCCO1 [Carboxin] | 149.35 Å² | –
10 | CC(C(=O)O)c1ccc2c(c1)[nH]c1ccc(Cl)cc12 (stereo not drawn) [Carprofen] | 156.1 Å² | –
11 | Nc1cnn(-c2ccccc2)c(=O)c1Cl [Chloridazon] | 141.59 Å² | –
12 | CN(C)C(=O)Nc1ccc(Oc2ccc(Cl)cc2)cc1 [Chloroxuron] | 172.24 Å² | –
13 | CN(C)CCCN1c2ccccc2Sc2ccc(Cl)cc21 [Chlorpromazine] | 169.1 Å² | –
14 | CN(C)[C@@H]1C(O)=C(C(=N)O)C(=O)[C@@]2(O)C(O)=C3C(=O)c4c(O)ccc(Cl)c4[C@@](C)(O)[C@H]3C[C@@H]12 [Chlortetracycline] | 203.9 Å² | –
15 | Cc1ccc(/N=C(/O)N(C)C)cc1Cl [Chlortoluron] | 145.96 Å² | –
16 | CC(C)(C)NCC(O)c1cc(Cl)c(N)c(Cl)c1 (stereo not drawn) [Clenbuterol] | 159.2 Å² | –
17 | Cc1ccc(-c2c(Cl)nc(C#N)n2S(=O)(=O)N(C)C)cc1 [Cyazofamid] | 166.69 Å² | –
18 | CCN(CC)C(=O)c1cccc(C)c1 [DEET] | 142.48 Å² | –
19 | COc1ccc(/C(=C/C(=O)N2CCOCC2)c2ccc(Cl)cc2)cc1OC [Dimethomorph I] | 199.03 Å² | –
20 | CCCCc1c(C)nc(NCC)[nH]c1=O [Ethirimol] | 150.65 Å² | –
21 | CCCSP(=O)(OCC)SCCC [Ethoprophos] | 149.27 Å² | –
22 | N#CC(CCc1ccc(Cl)cc1)(Cn1cncn1)c1ccccc1 (stereo not drawn) [Fenbuconazole] | 182.44 Å² | –

Row | SMILES | collision cross section (N2) [1] | also measured
23 | Cc1nn(C)c(Oc2ccccc2)c1/C=N/OCc1ccc(C(=O)OC(C)(C)C)cc1 [Fenpyroximate] | 215.89 Å² | –
24 | N#Cc1nn(-c2c(Cl)cc(C(F)(F)F)cc2Cl)c(N)c1S(=O)C(F)(F)F (stereo not drawn) [Fipronil] | 180.77 Å² | –
25 | CC1(C)OC(=O)C(OCC2CC2)=C1c1ccc(S(C)(=O)=O)cc1 [Firocoxib] | 182.1 Å² | –
26 | Nc1c(Cl)c(F)nc(OCC(=O)O)c1Cl [Fluroxypyr] | 140.69 Å² | –
27 | CCCCOC(=O)N(C)SN(C)C(=O)Oc1cccc2c1OC(C)(C)C2 [Furathiocarb] | 190.73 Å² | –
28 | CCCCCCCCCCCCC=CC[C@@H](O)[C@H](CO[C@@H]1O[C@H](CO)[C@@H](O)C(O)C1O)NC(=O)CC=CCCCCCCCCCCCCCC (stereo partly drawn) [GlcCer(36:2)] | – | collision cross section (N2) ([2]; [M+Na]+): 282.6 Å²; collision cross section (N2) ([3]; [M+H]+): 283.4 Å²
29 | CCCCCCCCCCCCCCCCCCCCCCCC(=O)N[C@@H](CO[C@@H]1O[C@H](CO)[C@@H](O)C(O)C1O)[C@H](O)CCCCCCCCCCCCCCC (stereo partly drawn) [GlcCer(42:0)] | – | collision cross section (N2) ([2]; [M+Na]+): 308.2 Å²; collision cross section (N2) ([3]; [M+HCOO]-): 300.8 Å²
30 | CCCCCCCCCCCCC=CC[C@@H](O)[C@H](CO[C@@H]1O[C@H](CO)[C@@H](O)C(O)C1O)NC(=O)CC=CCCCCCCCCCCCCCCCCCCCC (stereo partly drawn) [GlcCer(42:2)] | – | collision cross section (N2) ([2]; [M+Na]+): 305.2 Å²; collision cross section (N2) ([3]; [M+HCOO]-): 298.5 Å²; collision cross section (N2) ([3]; [M+H]+): 300.9 Å²; collision cross section (N2) ([3]; [M+Na]+): 300.4 Å²
31 | O=C(CCCN1CCC(O)(c2ccc(Cl)cc2)CC1)c1ccc(F)cc1 [Haloperidol] | 193.9 Å² | –
32 | CC1C(c2ccc(Cl)cc2)SC(=O)N1C(=O)NC1CCCCC1 (stereo not drawn) [Hexythiazox] | 183.83 Å² | –
33 | O=[N+]([O-])c1cnc(CO)n1CCO [Hydroxymetronidazole] | 128.2 Å² | –
34 | C=CCOC(Cn1ccnc1)c1ccc(Cl)cc1Cl (stereo not drawn) [Imazalil] | 164.99 Å² | –
35 | O=[N+]([O-])/N=C1\NCCN1Cc1ccc(Cl)nc1 [Imidacloprid] | 149.62 Å² | –
36 | CO[C@@H]1[C@@H](O[C@@H]2O[C@H](C)[C@@H](O[C@H]3C[C@@](C)(O)[C@@H](OC(=O)CC(C)C)[C@H](C)O3)[C@H](N(C)C)[C@H]2O)[C@@H](CC=O)C[C@@H](C)[C@@H](O)/C=C/C=C/C[C@@H](C)OC(=O)C[C@H]1OC(C)=O [Josamycin] | 306.8 Å² | –
37 | CN1CCN(c2c(F)cc3c(=O)c(C(=O)O)cn4c3c2OCN4C)CC1 [Marbofloxacin] | 179.6 Å² | –
38 | Cc1cccc(Nc2ccccc2C(=O)O)c1C [Mefenamic acid] | 150.5 Å² | –
39 | Cc1nnc(-c2ccccc2)c(=O)n1N [Metamitron] | 140.93 Å² | –
40 | CNC(=O)N(C)c1nc2ccccc2s1 [Methabenzthiazuron] | 142.47 Å² | –
41 | CON(C)C(=O)Nc1ccc(Br)cc1 [Metobromuron] | 145.41 Å² | –
42 | Cc1ncc([N+](=O)[O-])n1CCO [Metronidazole] | 124.2 Å² | –
43 | O=C(O)\C2=C\N(c1cc(c(F)cc1C2=O)N3CCNCC3)CC [Norfloxacine] | 171 Å² | –
44 | O=C(NC(=O)c1c(F)cccc1F)Nc1ccc(OC(F)(F)C(F)OC(F)(F)F)c(Cl)c1 (stereo not drawn) [Novaluron] | 196.35 Å² | –

Row | SMILES | collision cross section (N2) [1] | also measured
45 | C/N=C(/O)CSP(=O)(OC)OC [Omethoate] | 134.62 Å² | –
46 | CCCC/C=C\C/C=C\CCCCCCCC(=O)O[C@H](COC(=O)CCCCCCC/C=C\CCCCCCCC)COP(=O)([O-])OCC[N+](C)(C)C [PC(35:3)] | – | collision cross section (N2) ([2]; [M+K]+): 296.1 Å²; collision cross section (N2) ([3]; [M+H]+): 284.2 Å²
47 | CCCCCCCCCC/C=C\CCCCCCCCCC(=O)O[C@H](COC(=O)CCCCCCCCCCCC)COP(=O)(O)OCCN [PE(35:1)] | – | collision cross section (N2) ([2]; [M+K]+): 283.6 Å²; collision cross section (N2) ([2]; [M+Na]+): 282.9 Å²; collision cross section (N2) ([3]; [M+H]+): 276.6 Å²
48 | CCOP(=O)(OCC)Oc1ccc([N+](=O)[O-])cc1 [Paraoxon-ethyl] | 156.76 Å² | –
49 | O=C(Nc1ccccc1)N(Cc1ccc(Cl)cc1)C1CCCC1 [Pencycuron] | 179.71 Å² | –
50 | Cc1nc(N(C)C)nc(OC(=O)N(C)C)c1C [Pirimicarb] | 154.68 Å² | –
51 | CN1C(/C(O)=N/c2ccccn2)=C(O)c2ccccc2S1(=O)=O [Piroxicam] | 170.9 Å² | –
52 | O=C2\C(=C(/N(N2c1ccccc1)C)C)C(C)C [Propyphenazone] | 150 Å² | –
53 | CCCN(CCC)C(=O)SCc1ccccc1 [Prosulfocarb] | 156.95 Å² | –
54 | COc1nc(C)nc(NC(=O)NS(=O)(=O)c2ccccc2CCC(F)(F)F)n1 [Prosulfuron] | 187.01 Å² | –
55 | COC(=O)N(OC)c1ccccc1COc1ccn(-c2ccc(Cl)cc2)n1 [Pyraclostrobin] | 183.19 Å² | –
56 | CN1CCCN=C1/C=C/c1cccs1 [Pyrantel] | 143 Å² | –
57 | CC(COc1ccc(Oc2ccccc2)cc1)Oc1ccccn1 (stereo not drawn) [Pyriproxifen] | 182.76 Å² | –
58 | C=C1C[C@@]23CC[C@H]4[C@@](C)(CCC[C@@]4(C)C(=O)O[C@@H]4O[C@H](CO)[C@@H](O)[C@H](O)[C@H]4O)[C@@H]2CC[C@]1(O[C@@H]1O[C@H](CO)[C@@H](O)[C@H](O[C@@H]2O[C@H](CO)[C@@H](O)[C@H](O)[C@H]2O)[C@H]1O[C@@H]1O[C@H](CO)[C@@H](O)[C@H](O)[C@H]1O)C3 [Rebaudioside A] | 299.48 Å² | –
59 | Fc1ccc(cc1)N\3c2cc(c(F)cc2C(=O)C(/C(=O)O)=C/3)N4CCNCC4 [Sarafloxacine] | 202 Å² | –
60 | CCNc1nc(Cl)nc(NCC)n1 [Simazine] | 142.09 Å² | –
61 | C[C@]12Cc3cn[nH]c3C[C@@H]1CC[C@@H]1[C@@H]2CC[C@@]2(C)[C@H]1CC[C@]2(C)O [Stanozolol] | 185.2 Å² | –
62 | C=C1C[C@@]23CC[C@H]4[C@@](C)(CCC[C@@]4(C)C(=O)O)[C@@H]2CC[C@]1(O[C@@H]1O[C@H](CO)[C@@H](O)[C@H](O)[C@H]1O[C@@H]1O[C@H](CO)[C@@H](O)[C@H](O)[C@H]1O)C3 [Steviolbioside] | 235.78 Å² | –
63 | CC(C)C[C@H](NC(=O)[C@H](CC(=O)O)NC(=O)[C@@H](NC(=O)[C@H](CC(C)C)NC(=O)[C@@H](N)C(C)C)C(C)C)C(=O)N[C@@H](CCC(=O)O)C(=O)N[C@@H](CCCNC(=N)N)C(=O)O [VLVDLER] | – | collision cross section (N2) ([2]; [M+H]+): 285.7 Å²
64 | CCC(C)C(NC(=O)C(N)Cc1c[nH]c2ccccc12)C(=O)NC(CCCN=C(N)N)C(=O)O (stereo not drawn) [WIR] | – | collision cross section (N2) ([2]; [M+H]+): 215.4 Å²
65 | CC(C)C[C@H](NC(=O)[C@H](CC(=O)O)NC(=O)[C@@H](N)Cc1ccc(O)cc1)C(=O)N[C@@H](CC(=O)O)C(=O)N[C@@H](Cc1ccccc1)C(=O)N[C@@H](CCCCN)C(=O)O [YDLDFK] | – | collision cross section (N2) ([2]; [M+H]+): 272.4 Å²
